# Test results from patent publication US5030732A, “Aminoethylphosphinic acid derivatives” (Merck & Co., Inc., priority 1988, dated 1991).
# Tests used:
# [1] = Antibacterial activity, MIC by Method 1 (method of Atherton et al); assay type: cell-based; details: Enterococcus cloacae, read-out: Minimum inhibiting concentration (MIC)
# Experimental: (§1) Antibacterial activity was tested by two methods.
# (§2) Minimum inhibiting concentration (MIC, μg/ml) was determined by the method of Atherton et al (Antimicrobial Agent and Chemotherapy 15, 677, 1979).
# (§3) Antibacterial activity: MIC (μ g/ml) [by Method 1]
# E. coli DC 2 = assay: as above; assay type: cell-based; details: for MIC: Escherichia coli, DC2, read-out: Minimum inhibiting concentration (MIC)
# Experimental: as §1, §2, §3
# E. coli TEM 2 = assay: as above; assay type: cell-based; details: for MIC: Escherichia coli, TEM2, read-out: Minimum inhibiting concentration (MIC)
# Experimental: as §1, §2, §3
# E. coli = assay: as above; assay type: cell-based; details: for MIC: Escherichia coli, read-out: Minimum inhibiting concentration (MIC)
# Experimental: as §1, §2, §3
# Proteus vulgaris = assay: as above; assay type: cell-based; details: for MIC: read-out: Minimum inhibiting concentration (MIC)
# Experimental: as §1, §2, §3
# Pseudomonas aeruginosa = assay: as above; assay type: cell-based; details: for MIC: read-out: Minimum inhibiting concentration (MIC)
# Experimental: as §1, §2, §3
# Salmonella typhimurium = assay: as above; assay type: cell-based; details: for MIC: Salmonella enterica, read-out: Minimum inhibiting concentration (MIC)
# Experimental: as §1, §2, §3
# Serratia marcescens = assay: as above; assay type: cell-based; details: for MIC: read-out: Minimum inhibiting concentration (MIC)
# Experimental: as §1, §2, §3
# Staphylococcus aureus = assay: as above; assay type: cell-based; details: for MIC: read-out: Minimum inhibiting concentration (MIC)
# Experimental: as §1, §2, §3
# Streptococcus faecalis = assay: as above; assay type: cell-based; details: for MIC: Enterococcus faecalis, read-out: Minimum inhibiting concentration (MIC)
# Experimental: as §1, §2, §3
# Klebsiella pneumoniae = assay: as above; assay type: cell-based; details: for MIC: read-out: Minimum inhibiting concentration (MIC)
# Experimental: as §1, §2, §3
# racemase = details: in words; literature; formed by bacterial peptidase; cited from earlier work
# Enterococcus cloacae = assay: Antibacterial activity, MIC by Method 1 (method of Atherton et al); assay type: cell-based
# Experimental: as §1, §2, §3
# [2] = test system: bacterial cell wall synthesis; details: in words; literature; cited from earlier work
Compound,MIC [1] [µg/mL],MIC (E. coli DC 2) [µg/mL],MIC (E. coli TEM 2) [µg/mL],MIC (E. coli) [µg/mL],MIC (Proteus vulgaris) [µg/mL],MIC (Pseudomonas aeruginosa) [µg/mL],MIC (Salmonella typhimurium) [µg/mL],MIC (Serratia marcescens) [µg/mL],MIC (Staphylococcus aureus) [µg/mL],MIC (Streptococcus faecalis) [µg/mL],MIC (Klebsiella pneumoniae) [µg/mL],also measured
"CCC[C@H](N)C(=O)NC(CP(=O)(O)C(C)N)C(=O)O (stereo partly drawn) [Compound No. 6-1, (1-Aminoethyl)(2-L-norvalylamino-2-carboxyethyl)phosphinic acid]",64,16,256,16,1,> 256,128,> 256,32,16,–,–
"CCC[C@H](NC(=O)[C@H](C)N)C(=O)NC(CP(=O)(O)C(C)N)C(=O)O (stereo partly drawn) [Compound No. 20, (1-Aminoethyl)(2-L-alanyl-L-norvalylamino-2-carboxyethyl)phosphinic acid]",0.5,≤ 0.25,≤ 0.25,0.5,0.5,256,0.5,0.5,256,≤ 0.25,≤ 0.25,–
CC(N)P(=O)(O)O (stereo not drawn) [1-aminoethylphosphonic acid],–,–,–,–,–,–,–,–,–,–,–,inhibition of racemase activity (racemase): inhibiting racemase activity
(D-1-aminoethyl)(2-L-nor-valylamino -2-L- or -D-carboxyethyl)phosphinic acid [6-2],–,–,–,–,–,–,–,–,–,–,–,Minimum inhibiting concentration (MIC) (E. coli DC 2): 4 µg/mL; Minimum inhibiting concentration (MIC) (E. coli TEM 2): 64 µg/mL; Minimum inhibiting concentration (MIC) (E. coli): 8 µg/mL; Minimum inhibiting concentration (MIC) (Enterococcus cloacae): 16 µg/mL; Minimum inhibiting concentration (MIC) (Klebsiella pneumoniae): 64 µg/mL; Minimum inhibiting concentration (MIC) (Proteus vulgaris): 1 µg/mL; Minimum inhibiting concentration (MIC) (Pseudomonas aeruginosa): > 256 µg/mL; Minimum inhibiting concentration (MIC) (Salmonella typhimurium): 32 µg/mL; Minimum inhibiting concentration (MIC) (Serratia marcescens): 128 µg/mL; Minimum inhibiting concentration (MIC) (Staphylococcus aureus): 8 µg/mL; Minimum inhibiting concentration (MIC) (Streptococcus faecalis): 1 µg/mL
"CSCC[C@H](N)C(=O)NC(CP(=O)(O)C(C)N)C(=O)O (stereo partly drawn) [Compound No. 10, (1-Aminoethyl)(2-L-methionylamino-2-carboxyethyl)phosphinic acid]",256,32,256,64,8,> 256,> 256,> 256,4,2,> 256,–
CC(N)C(=O)NC(C)P(=O)(O)O (stereo not drawn) [alaphosphalin],–,–,–,–,–,–,–,–,–,–,–,antibacterial action / inhibition of bacterial cell wall synthesis [2]: antibacterial action
